{"source": "patent US7262267B1", "about": "“Polypeptide mediating cell permeability” (Island Pharmacueticals, Ltd., priority 1998, dated 2007)", "key": {"[1]": {"test_system": "c-Raf1 kinase", "experiment": "Inhibition of the TNFα-dependent activation of c-Raf1 kinase (immunocomplex test with MEK and γ-32P-ATP)", "assay_type": "cell-based", "details": "HeLa cells incubated 2 h with 2 μM polypeptide, stimulated 15 min with TNFα; FIG. 2", "text": "The detection of cell permeability mediated by CPP is shown by inhibition of the TNFα-dependent activation of c-Raf1 kinase. The activation of the c-Raf1 kinase is based on the interaction between the TNF receptor I (TNR-RI) and the adapter molecule Grb2. For this purpose, the SH3 domain of Grb2 interacts with a PLAP motive from the cytoplasmic domain of TNF-RI.\nCPP is provided in the form of a fusion polypeptide. In this fusion polypeptide referred to as CPP-PLAP CPP, the amino acid sequence of FIG. 1 is present as N-terminus partner and a PLAP motive from the cytoplasmic domain of TNF-RI is present as C-terminus partner. A fusion polypeptide referred to as CPP-KLAP is also provided, which has a mutated PLAP motive.\nHeLa cells are incubated for 2 h with 2 μM CPP-PLAP or CPP-KLAP (control) and stimulated for 15 min with 100 μ/ml TNFα. The activation of c-Raf1 kinase is determined by an immunocomplex test using MEK (Santa Cruz, Biotech) and y^32p-ATP as substrate (cf. FIG. 2)."}, "[2]": {"test_system": "293 cells", "experiment": "Cell permeability: detection of the protein in the cytosolic fraction of 293 cells by Western blot", "assay_type": "cell-based", "details": "1 μM in medium, Western blot anti-hexa-His and anti-eGFP", "protocol": "Detection of the cell permeability mediated by DHBV (duck hepatitis B virus)-CPP was made as follows: According to standard methods a fusion protein consisting of a hexa-His-Tag (6H), DHBV-CPP and eGFP (enhanced green fluorescent protein) was prepared in analogy to Example 1 in an E. coli expression system. The pQE vector system of the Quiagen company was used. This protein (DHBV42-53eGFP) was isolated. wt6HeGFP (fusion protein of 6 His and eGFP) was used for control experiments. Then, 293 cells were incubated in the presence of these proteins for 10 and 20 minutes. The proteins were added to the medium at a concentration of 1 μM. After 10 or 20 minutes, the cells were lyzed and the cytosolic fraction of the cells was isolated by ultracentrifugation.\nThe presence of DHBV42-53 eGFP in the cytosol fraction was detected by means of Western blot analysis using a hexa-His-tag-specific antibody (FIG. 6, lanes 1-4) (anti-hexa-His6 of Qiagen company) or an eGFP-specific antibody (anti-eGFP of Clontech company) (FIG. 6, lanes 5-8). A peroxidase-conjugated secondary antibody (anti-mouse HRP, anti-rabbit-HRP of Amersham company) was used for the detection."}}, "note": "Where no end group is shown, it is not given here."}
{"substance": "CPP-PLAP: fusion polypeptide: amino acid sequence of FIG. 1 as N-terminus partner, PLAP motive from cytoplasmic domain of TNF-RI as C-terminus partner (PLSSIFSRIGDPTTTKPLAPNPSF)", "values": [{"measurement": "inhibition of the TNFα-dependent activation of c-Raf1 kinase", "setting": "[1]", "value": "fully inhibits"}]}
{"substance": "DHBV42-53-eGFP: fusion protein consisting of a hexa-His-Tag (6H), DHBV-CPP and eGFP (enhanced green fluorescent protein) (TIDHVLDHVQTM; not fully specified (C-terminus); also: fusion with hexa-His tag and eGFP, not in the chain)", "values": [{"measurement": "internalization of the protein into the cell (cytosol)", "setting": "[2]; after 10 min", "value": "can be observed"}, {"measurement": "internalization of the protein into the cell (cytosol)", "setting": "[2]; after 20 minutes", "value": "can be observed"}]}
